Measured values taken from paper PMC12621043, “Un-LOK-ing a New Approach for Conformational Selective Targeting of STK10 (LOK)” (ACS Medicinal Chemistry Letters, 2025).

target: T1, FGFR3A (Homo sapiens, UniProt P22607); assay: DSF Tm panel; format: binding; details: 10 μM compound
T1 construct: purchased in-house DSF kinase panel (SGC-style construct names; the trailing letter is the construct ID)
T1 sequence (P22607 472-761): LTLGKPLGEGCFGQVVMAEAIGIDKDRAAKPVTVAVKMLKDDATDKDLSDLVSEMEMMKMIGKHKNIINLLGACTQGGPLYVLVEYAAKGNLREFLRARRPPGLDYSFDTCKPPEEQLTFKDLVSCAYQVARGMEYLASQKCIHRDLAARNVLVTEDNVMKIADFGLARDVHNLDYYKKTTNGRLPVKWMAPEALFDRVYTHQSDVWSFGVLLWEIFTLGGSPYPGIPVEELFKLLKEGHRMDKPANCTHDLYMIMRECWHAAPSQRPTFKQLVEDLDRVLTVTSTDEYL

Row | SMILES | ΔTm at 10 µM [°C]
1 | O=C(NCc1ccccc1)Nc1ccc2cc1OCCOCCNc1ccn3ncc-2c3n1 [compound 16] | 5
2 | O=C(NCc1ccccc1Cl)Nc1ccc2cc1OCCOCCNc1ccn3ncc-2c3n1 [compound 17] | 2.1
3 | O=C(NCc1ccc(Cl)cc1)Nc1ccc2cc1OCCOCCNc1ccn3ncc-2c3n1 [compound 19] | 1.7
4 | CN1CCN(C(=O)Nc2ccc3cc2OCCOCCNc2ccn4ncc-3c4n2)CC1 [compound 35] | 3

Results, then the molecule that gave them:

Row | ΔTm at 10 µM [°C] | SMILES
5 | 3.6 | O=C(NCc1cccc(Cl)c1)Nc1ccc2cc1OCCOCCNc1ccn3ncc-2c3n1 [compound 18]
6 | 1.4 | O=C(NCc1ccc(Cl)cc1Cl)Nc1ccc2cc1OCCOCCNc1ccn3ncc-2c3n1 [compound 20]
7 | 1.6 | O=C(NCc1ccc(Cl)cc1F)Nc1ccc2cc1OCCOCCNc1ccn3ncc-2c3n1 [compound 21]
8 | 2.5 | Cc1cc(Cl)ccc1CNC(=O)Nc1ccc2cc1OCCOCCNc1ccn3ncc-2c3n1 [compound 23]

target: T2, EPHB1A (Homo sapiens, UniProt P54762); assay: DSF Tm panel; format: binding; details: 10 μM compound
T2 construct: purchased in-house DSF kinase panel (SGC-style construct names; the trailing letter is the construct ID)
T2 sequence (P54762 602-896): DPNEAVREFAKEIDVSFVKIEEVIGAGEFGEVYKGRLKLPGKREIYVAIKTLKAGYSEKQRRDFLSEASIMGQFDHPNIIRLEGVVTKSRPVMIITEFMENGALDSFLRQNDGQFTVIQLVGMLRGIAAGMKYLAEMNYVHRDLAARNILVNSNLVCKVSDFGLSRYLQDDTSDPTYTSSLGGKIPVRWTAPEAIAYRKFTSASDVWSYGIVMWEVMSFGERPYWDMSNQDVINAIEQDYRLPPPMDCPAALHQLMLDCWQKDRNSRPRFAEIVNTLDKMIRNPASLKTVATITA

Row | SMILES | ΔTm at 10 µM [°C]
9 | Cc1cc(Br)ccc1CNC(=O)Nc1ccc2cc1OCCOCCNc1ccn3ncc-2c3n1 [compound 24] | 0.2

target: T3, MERTK (Homo sapiens, UniProt Q12866); assay: DSF Tm panel; format: binding; details: 10 μM compound
T3 construct: purchased in-house DSF kinase panel (SGC-style construct names; the trailing letter is the construct ID)
T3 sequence (Q12866 570-864): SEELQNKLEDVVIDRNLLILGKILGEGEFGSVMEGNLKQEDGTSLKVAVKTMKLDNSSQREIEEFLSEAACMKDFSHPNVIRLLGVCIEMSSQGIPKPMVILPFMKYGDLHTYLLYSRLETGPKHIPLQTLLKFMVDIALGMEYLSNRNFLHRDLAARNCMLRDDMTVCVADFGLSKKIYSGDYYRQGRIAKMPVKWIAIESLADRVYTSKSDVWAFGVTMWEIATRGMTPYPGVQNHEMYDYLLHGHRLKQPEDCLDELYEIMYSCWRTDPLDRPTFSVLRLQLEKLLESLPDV

Row | SMILES | ΔTm at 10 µM [°C]
10 | O=C(NCc1ccccc1)Nc1ccc2cc1OCCOCCNc1ccn3ncc-2c3n1 [compound 16] | 1.4
11 | O=C(NCc1ccccc1Cl)Nc1ccc2cc1OCCOCCNc1ccn3ncc-2c3n1 [compound 17] | 1.6
12 | O=C(NCc1ccc(Cl)cc1)Nc1ccc2cc1OCCOCCNc1ccn3ncc-2c3n1 [compound 19] | 2.5
13 | CN1CCN(C(=O)Nc2ccc3cc2OCCOCCNc2ccn4ncc-3c4n2)CC1 [compound 35] | 0.4

The remaining lines, values ahead:

Row | ΔTm at 10 µM [°C] | SMILES
14 | 1.8 | O=C(NCc1cccc(Cl)c1)Nc1ccc2cc1OCCOCCNc1ccn3ncc-2c3n1 [compound 18]
15 | 2.2 | O=C(NCc1ccc(Cl)cc1Cl)Nc1ccc2cc1OCCOCCNc1ccn3ncc-2c3n1 [compound 20]
16 | 2.7 | O=C(NCc1ccc(Cl)cc1F)Nc1ccc2cc1OCCOCCNc1ccn3ncc-2c3n1 [compound 21]
17 | 3.1 | Cc1cc(Cl)ccc1CNC(=O)Nc1ccc2cc1OCCOCCNc1ccn3ncc-2c3n1 [compound 23]

target: T4, NQO2A (Homo sapiens, UniProt P16083); assay: DSF Tm panel; format: binding; details: 10 μM compound
T4 construct: purchased in-house DSF kinase panel (SGC-style construct names; the trailing letter is the construct ID)
T4 sequence (P16083 1-231): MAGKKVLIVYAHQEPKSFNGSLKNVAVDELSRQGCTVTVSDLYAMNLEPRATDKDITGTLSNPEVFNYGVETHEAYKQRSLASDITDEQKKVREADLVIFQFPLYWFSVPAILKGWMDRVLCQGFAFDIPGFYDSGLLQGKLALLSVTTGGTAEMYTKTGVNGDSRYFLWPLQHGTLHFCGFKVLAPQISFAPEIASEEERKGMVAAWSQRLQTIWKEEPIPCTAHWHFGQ

Row | SMILES | ΔTm at 10 µM [°C]
18 | Cc1cc(Br)ccc1CNC(=O)Nc1ccc2cc1OCCOCCNc1ccn3ncc-2c3n1 [compound 24] | -1.9

target: T5, STK38LA (Homo sapiens, UniProt Q9Y2H1); assay: DSF Tm panel; format: binding; details: 10 μM compound
T5 construct: purchased in-house DSF kinase panel (SGC-style construct names; the trailing letter is the construct ID)
T5 sequence (Q9Y2H1 90-453): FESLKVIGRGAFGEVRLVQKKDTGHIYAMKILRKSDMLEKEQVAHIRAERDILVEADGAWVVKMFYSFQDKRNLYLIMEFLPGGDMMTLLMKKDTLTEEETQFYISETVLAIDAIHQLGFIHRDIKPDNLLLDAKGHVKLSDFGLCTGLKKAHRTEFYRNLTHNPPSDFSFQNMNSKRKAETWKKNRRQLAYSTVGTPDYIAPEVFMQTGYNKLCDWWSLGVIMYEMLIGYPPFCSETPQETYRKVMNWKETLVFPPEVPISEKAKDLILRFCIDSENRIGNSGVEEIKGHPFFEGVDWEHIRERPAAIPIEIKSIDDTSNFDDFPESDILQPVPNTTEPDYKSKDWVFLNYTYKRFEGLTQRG

Row | SMILES | ΔTm at 10 µM [°C]
19 | O=C(NCc1ccccc1)Nc1ccc2cc1OCCOCCNc1ccn3ncc-2c3n1 [compound 16] | 0.8
20 | O=C(NCc1ccccc1Cl)Nc1ccc2cc1OCCOCCNc1ccn3ncc-2c3n1 [compound 17] | 0.7
21 | O=C(NCc1ccc(Cl)cc1)Nc1ccc2cc1OCCOCCNc1ccn3ncc-2c3n1 [compound 19] | 0.6
22 | CN1CCN(C(=O)Nc2ccc3cc2OCCOCCNc2ccn4ncc-3c4n2)CC1 [compound 35] | 0.4

Results, then the molecule that gave them:

Row | ΔTm at 10 µM [°C] | SMILES
23 | 1.1 | O=C(NCc1cccc(Cl)c1)Nc1ccc2cc1OCCOCCNc1ccn3ncc-2c3n1 [compound 18]
24 | 0.7 | O=C(NCc1ccc(Cl)cc1Cl)Nc1ccc2cc1OCCOCCNc1ccn3ncc-2c3n1 [compound 20]
25 | 1.2 | O=C(NCc1ccc(Cl)cc1F)Nc1ccc2cc1OCCOCCNc1ccn3ncc-2c3n1 [compound 21]
26 | 1.7 | Cc1cc(Cl)ccc1CNC(=O)Nc1ccc2cc1OCCOCCNc1ccn3ncc-2c3n1 [compound 23]

target: T6, TLK1A (Homo sapiens, UniProt Q9UKI8); assay: DSF Tm panel; format: binding; details: 10 μM compound
T6 construct: purchased in-house DSF kinase panel (SGC-style construct names; the trailing letter is the construct ID)
T6 sequence (Q9UKI8 456-734): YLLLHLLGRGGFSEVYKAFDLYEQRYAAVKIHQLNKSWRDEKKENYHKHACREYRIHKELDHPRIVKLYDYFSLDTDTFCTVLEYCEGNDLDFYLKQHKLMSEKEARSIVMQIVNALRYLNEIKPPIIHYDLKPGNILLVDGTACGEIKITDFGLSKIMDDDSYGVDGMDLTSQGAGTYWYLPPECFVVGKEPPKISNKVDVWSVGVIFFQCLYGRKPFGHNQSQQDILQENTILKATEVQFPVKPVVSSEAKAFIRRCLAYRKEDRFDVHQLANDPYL

Row | SMILES | ΔTm at 10 µM [°C]
27 | Cc1cc(Br)ccc1CNC(=O)Nc1ccc2cc1OCCOCCNc1ccn3ncc-2c3n1 [compound 24] | 1

target: T7, WNK1A (Homo sapiens, UniProt Q9H4A3); assay: DSF Tm panel; format: binding; details: 10 μM compound
T7 construct: purchased in-house DSF kinase panel (SGC-style construct names; the trailing letter is the construct ID)
T7 sequence (Q9H4A3 206-483): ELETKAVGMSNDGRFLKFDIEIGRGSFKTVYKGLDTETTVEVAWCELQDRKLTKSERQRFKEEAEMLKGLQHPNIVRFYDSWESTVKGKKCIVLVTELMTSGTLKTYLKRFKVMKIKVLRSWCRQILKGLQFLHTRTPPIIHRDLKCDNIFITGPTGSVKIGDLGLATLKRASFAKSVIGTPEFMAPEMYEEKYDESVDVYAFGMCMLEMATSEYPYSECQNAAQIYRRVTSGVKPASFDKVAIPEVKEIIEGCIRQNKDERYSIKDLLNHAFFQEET

Row | SMILES | ΔTm at 10 µM [°C]
28 | O=C(NCc1ccccc1)Nc1ccc2cc1OCCOCCNc1ccn3ncc-2c3n1 [compound 16] | 0
29 | O=C(NCc1ccccc1Cl)Nc1ccc2cc1OCCOCCNc1ccn3ncc-2c3n1 [compound 17] | 0.5
30 | O=C(NCc1ccc(Cl)cc1)Nc1ccc2cc1OCCOCCNc1ccn3ncc-2c3n1 [compound 19] | -0.2
31 | CN1CCN(C(=O)Nc2ccc3cc2OCCOCCNc2ccn4ncc-3c4n2)CC1 [compound 35] | 0.4

Other lines, results leading:

Row | ΔTm at 10 µM [°C] | SMILES
32 | 0.09 | O=C(NCc1cccc(Cl)c1)Nc1ccc2cc1OCCOCCNc1ccn3ncc-2c3n1 [compound 18]
33 | 0.4 | O=C(NCc1ccc(Cl)cc1Cl)Nc1ccc2cc1OCCOCCNc1ccn3ncc-2c3n1 [compound 20]
34 | -0.2 | O=C(NCc1ccc(Cl)cc1F)Nc1ccc2cc1OCCOCCNc1ccn3ncc-2c3n1 [compound 21]
35 | 1.6 | Cc1cc(Cl)ccc1CNC(=O)Nc1ccc2cc1OCCOCCNc1ccn3ncc-2c3n1 [compound 23]

target: T8, CAMK1GA (Homo sapiens, UniProt Q96NX5); assay: DSF Tm panel; format: binding; details: 10 μM compound
T8 construct: purchased in-house DSF kinase panel (SGC-style construct names; the trailing letter is the construct ID)
T8 sequence (Q96NX5 18-316): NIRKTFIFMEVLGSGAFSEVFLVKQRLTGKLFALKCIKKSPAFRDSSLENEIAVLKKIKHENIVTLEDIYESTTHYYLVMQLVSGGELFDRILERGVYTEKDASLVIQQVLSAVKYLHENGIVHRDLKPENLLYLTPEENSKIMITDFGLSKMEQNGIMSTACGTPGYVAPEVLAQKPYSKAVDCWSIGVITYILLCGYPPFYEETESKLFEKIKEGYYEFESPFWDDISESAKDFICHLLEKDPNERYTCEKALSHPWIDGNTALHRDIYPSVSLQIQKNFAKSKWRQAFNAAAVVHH

Row | SMILES | ΔTm at 10 µM [°C]
36 | O=C(NCc1ccccc1)Nc1ccc2cc1OCCOCCNc1ccn3ncc-2c3n1 [compound 16] | -0.3
37 | O=C(NCc1ccccc1Cl)Nc1ccc2cc1OCCOCCNc1ccn3ncc-2c3n1 [compound 17] | 0.9
38 | O=C(NCc1ccc(Cl)cc1)Nc1ccc2cc1OCCOCCNc1ccn3ncc-2c3n1 [compound 19] | 0.9
39 | CN1CCN(C(=O)Nc2ccc3cc2OCCOCCNc2ccn4ncc-3c4n2)CC1 [compound 35] | 0

More lines, now with the values ahead:

Row | ΔTm at 10 µM [°C] | SMILES
40 | 0.8 | O=C(NCc1cccc(Cl)c1)Nc1ccc2cc1OCCOCCNc1ccn3ncc-2c3n1 [compound 18]
41 | 2.7 | O=C(NCc1ccc(Cl)cc1Cl)Nc1ccc2cc1OCCOCCNc1ccn3ncc-2c3n1 [compound 20]
42 | 2 | O=C(NCc1ccc(Cl)cc1F)Nc1ccc2cc1OCCOCCNc1ccn3ncc-2c3n1 [compound 21]
43 | 2 | Cc1cc(Cl)ccc1CNC(=O)Nc1ccc2cc1OCCOCCNc1ccn3ncc-2c3n1 [compound 23]

target: T9, AURKBA (Homo sapiens, UniProt Q96GD4); assay: DSF Tm panel; format: binding; details: 10 μM compound
T9 construct: purchased in-house DSF kinase panel (SGC-style construct names; the trailing letter is the construct ID)
T9 sequence (Q96GD4 whole entry): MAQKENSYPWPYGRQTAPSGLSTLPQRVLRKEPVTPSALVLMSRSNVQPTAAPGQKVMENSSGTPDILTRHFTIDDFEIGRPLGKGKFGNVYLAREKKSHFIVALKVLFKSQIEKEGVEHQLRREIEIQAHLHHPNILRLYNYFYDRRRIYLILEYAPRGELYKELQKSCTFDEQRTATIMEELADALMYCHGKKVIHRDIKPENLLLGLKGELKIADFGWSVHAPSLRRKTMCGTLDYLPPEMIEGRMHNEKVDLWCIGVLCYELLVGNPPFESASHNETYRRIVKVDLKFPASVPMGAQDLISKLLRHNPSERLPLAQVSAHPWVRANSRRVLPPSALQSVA

Row | SMILES | ΔTm at 10 µM [°C]
44 | Cc1cc(Br)ccc1CNC(=O)Nc1ccc2cc1OCCOCCNc1ccn3ncc-2c3n1 [compound 24] | 7.7

target: T10, EPHA4A (Homo sapiens, UniProt P54764); assay: DSF Tm panel; format: binding; details: 10 μM compound
T10 construct: purchased in-house DSF kinase panel (SGC-style construct names; the trailing letter is the construct ID)
T10 sequence (P54764 621-882): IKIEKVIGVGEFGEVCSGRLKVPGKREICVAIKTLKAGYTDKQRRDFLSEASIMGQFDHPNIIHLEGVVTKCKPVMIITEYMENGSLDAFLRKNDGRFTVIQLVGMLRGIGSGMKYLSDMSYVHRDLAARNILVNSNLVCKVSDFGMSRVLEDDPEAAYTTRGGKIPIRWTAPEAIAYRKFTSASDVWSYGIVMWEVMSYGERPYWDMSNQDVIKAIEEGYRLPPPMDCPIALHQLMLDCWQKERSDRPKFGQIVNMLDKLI

Row | SMILES | ΔTm at 10 µM [°C]
45 | Cc1cc(Br)ccc1CNC(=O)Nc1ccc2cc1OCCOCCNc1ccn3ncc-2c3n1 [compound 24] | 0.2

target: T11, MSSK1A (Homo sapiens, UniProt Q9UPE1); assay: DSF Tm panel; format: binding; details: 10 μM compound
T11 construct: purchased in-house DSF kinase panel (SGC-style construct names; the trailing letter is the construct ID)
T11 sequence (Q9UPE1 79-565): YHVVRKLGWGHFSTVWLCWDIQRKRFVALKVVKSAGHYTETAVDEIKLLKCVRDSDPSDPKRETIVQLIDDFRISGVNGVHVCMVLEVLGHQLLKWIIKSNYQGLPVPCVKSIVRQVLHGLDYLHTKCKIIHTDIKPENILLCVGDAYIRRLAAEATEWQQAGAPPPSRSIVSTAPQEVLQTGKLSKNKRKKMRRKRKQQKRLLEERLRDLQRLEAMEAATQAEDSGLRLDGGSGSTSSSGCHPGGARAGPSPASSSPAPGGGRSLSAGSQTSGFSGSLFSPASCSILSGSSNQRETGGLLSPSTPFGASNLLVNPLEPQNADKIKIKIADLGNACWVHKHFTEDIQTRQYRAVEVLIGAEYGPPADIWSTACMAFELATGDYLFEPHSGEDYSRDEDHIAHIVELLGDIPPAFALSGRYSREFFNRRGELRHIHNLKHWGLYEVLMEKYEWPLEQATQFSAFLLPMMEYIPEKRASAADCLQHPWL

Row | SMILES | ΔTm at 10 µM [°C]
46 | Cc1cc(Br)ccc1CNC(=O)Nc1ccc2cc1OCCOCCNc1ccn3ncc-2c3n1 [compound 24] | 0.2
